Measured values taken from US20220089575A1, “FARNESOID X RECEPTOR AGONISTS AND USES THEREOF” (Metacrine, Inc., priority 2017, published 2022).

Target: T1, hFXR (Homo sapiens, UniProt Q96RI1)
T1 construct: expressed in transfected cells; host or cells: CV-1 cells
T1 sequence (Q96RI1 1-486): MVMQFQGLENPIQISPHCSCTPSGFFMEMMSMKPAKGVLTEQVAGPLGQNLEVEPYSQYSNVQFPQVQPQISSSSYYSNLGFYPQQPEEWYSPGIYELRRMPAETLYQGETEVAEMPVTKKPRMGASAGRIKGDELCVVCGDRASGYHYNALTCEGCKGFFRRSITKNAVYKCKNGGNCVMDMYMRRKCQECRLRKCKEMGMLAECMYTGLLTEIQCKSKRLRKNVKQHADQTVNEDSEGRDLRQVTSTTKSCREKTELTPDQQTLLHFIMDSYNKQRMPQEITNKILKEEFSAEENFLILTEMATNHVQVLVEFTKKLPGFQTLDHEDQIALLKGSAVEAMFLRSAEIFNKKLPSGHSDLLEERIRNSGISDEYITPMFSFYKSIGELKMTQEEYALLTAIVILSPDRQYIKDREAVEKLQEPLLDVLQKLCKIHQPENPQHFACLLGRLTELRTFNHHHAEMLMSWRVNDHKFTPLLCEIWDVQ
T1 sequence (P19793 1-462 partner): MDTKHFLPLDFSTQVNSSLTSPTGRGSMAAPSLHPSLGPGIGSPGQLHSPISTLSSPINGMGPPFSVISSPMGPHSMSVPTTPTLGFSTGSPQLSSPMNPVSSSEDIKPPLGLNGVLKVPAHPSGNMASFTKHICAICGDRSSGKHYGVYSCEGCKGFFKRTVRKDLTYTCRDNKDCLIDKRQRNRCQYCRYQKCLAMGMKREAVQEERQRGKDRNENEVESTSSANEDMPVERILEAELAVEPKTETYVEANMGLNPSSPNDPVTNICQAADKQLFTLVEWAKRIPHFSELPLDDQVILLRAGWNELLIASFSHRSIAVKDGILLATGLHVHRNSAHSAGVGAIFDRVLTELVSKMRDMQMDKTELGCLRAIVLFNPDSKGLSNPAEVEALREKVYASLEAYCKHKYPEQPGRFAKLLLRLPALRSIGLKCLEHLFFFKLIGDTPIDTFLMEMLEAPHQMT
Experiment: In Vitro FXR Assay (TK): TK-ECRE-luc reporter in transfected CV-1 cells
Assay type: cell-based
Conditions: 18 hrs, luminescence, maximum efficacy of <25% of the Fexarmine control classified as '+'
Outline: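 Luciferase luminescence read-out from lysed CV-1 cells transiently co-expressing hFXR and hRXR with a TK-ECRE-luc reporter (pCMX-YFP co-transfected). Compound exposure lasted 18 h at 37 °C, 5% CO2, in medium containing charcoal super-stripped serum.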

Row | Compound | EC50 [µM]
1 | COCC1CN(C(=O)O[C@H]2CC[C@H](C(=O)N(C[C@H]3CC[C@H](c4ccc(OC)c(C)c4)CC3)c3cccc(-c4cnn(C5CC5)c4)c3)CC2)C1 [Compound 7.26, trans-4-((3-(1-Cyclopropyl-1H-pyrazol-4-yl)phenyl)((trans-4-(4-methoxy-3-methylphenyl)cyclohexyl)methyl)carbamoyl)cyclohexyl 3-(methoxymethyl)azetidine-1-carboxylate] | ≤ 0.25
2 | COc1ccc([C@H]2CC[C@H](CN(c3cccc(-c4cnn(C5CC5)c4)c3)C(=O)[C@H]3CC[C@H](OC(=O)N4CC(N(C)C)C4)CC3)CC2)cc1C [Compound 7.27, trans-4-((3-(1-Cyclopropyl-1H-pyrazol-4-yl)phenyl)((trans-4-(4-methoxy-3-methylphenyl)cyclohexyl)methyl)carbamoyl)cyclohexyl 3-(dimethylamino)azetidine-1-carboxylate] | ≤ 0.25
3 | COc1ccc([C@H]2CC[C@H](CN(c3cccc(-c4cnn(C5CC5)c4)c3)C(=O)[C@H]3CC[C@H](OC(=O)N4CC(CO)C4)CC3)CC2)cc1C [Compound 7.28, trans-4-((3-(1-Cyclopropyl-1H-pyrazol-4-yl)phenyl)((trans-4-(4-methoxy-3-methylphenyl)cyclohexyl)methyl)carbamoyl)cyclohexyl 3-(hydroxymethyl)azetidine-1-carboxylate] | ≤ 0.25
4 | COc1ccc([C@H]2CC[C@H](CN(c3cccc(-c4cnn(C5CC5)c4)c3)C(=O)[C@H]3CC[C@H](OC(=O)N4CC[S+]([O-])CC4)CC3)CC2)cc1C [Compound 7.29, trans-4-((3-(1-Cyclopropyl-1H-pyrazol-4-yl)phenyl)((trans-4-(4-methoxy-3-methylphenyl)cyclohexyl)methyl)carbamoyl)cyclohexyl thiomorpholine-4-carboxylate 1-oxide] | ≤ 0.25
5 | COc1ccc([C@H]2CC[C@H](CN(c3cccc(-c4cnn(C5CC5)c4)c3)C(=O)[C@H]3CC[C@H](OC(=O)N4CCS(=O)(=O)CC4)CC3)CC2)cc1C [Compound 7.30, trans-4-((3-(1-Cyclopropyl-1H-pyrazol-4-yl)phenyl)((trans-4-(4-methoxy-3-methylphenyl)cyclohexyl)methyl)carbamoyl)cyclohexyl thiomorpholine-4-carboxylate1,1-dioxide] | ≤ 0.25
6 | COc1ccc([C@H]2CC[C@H](CN(c3cccc(-c4cnn(C5CC5)c4)c3)C(=O)[C@H]3CC[C@H](OC(=O)N4CCC4)CC3)CC2)cc1C [Compound 7.31, trans-4-((3-(1-Cyclopropyl-1H-pyrazol-4-yl)phenyl)((trans-4-(4-methoxy-3-methylphenyl)cyclohexyl)methyl)carbamoyl)cyclohexyl azetidine-1-carboxylate] | ≤ 0.25
7 | COc1ccc([C@H]2CC[C@H](CN(c3cccc(-c4cnn(C5CC5)c4)c3)C(=O)[C@H]3CC[C@H](OC(=O)N4CC(CN(C)C)C4)CC3)CC2)cc1C [Compound 7.32, trans-4-((3-(1-Cyclopropyl-1H-pyrazol-4-yl)phenyl)((trans-4-(4-methoxy-3-methylphenyl)cyclohexyl)methyl)carbamoyl)cyclohexyl 3-((dimethylamino)methyl)azetidine-1-carboxylate] | ≤ 0.25
8 | COc1ccc([C@H]2CC[C@H](CN(c3cccc(-c4cnn(C5CC5)c4)c3)C(=O)[C@H]3CC[C@H](OC(=O)N4CC(O)C4)CC3)CC2)nc1C#N [Compound 7.33, trans-4-(((trans-4-(6-Cyano-5-methoxypyridin-2-yl)cyclohexyl)methyl)(3-(1-cyclopropyl-1H-pyrazol-4-yl)phenyl)carbamoyl) cyclohexyl 3-hydroxyazetidine-1-carboxylate] | ≤ 0.25
9 | COC(=O)C1CN(C(=O)O[C@H]2CC[C@H](C(=O)N(C[C@H]3CC[C@H](c4ccc(OC)c(C)c4)CC3)c3cccc(-c4cnn(C5CC5)c4)c3)CC2)C1 [Compound 7.34, 1-(trans-4-((3-(1-Cyclopropyl-1H-pyrazol-4-yl)phenyl)((trans-4-(4-methoxy-3-methylphenyl)cyclohexyl)methyl)carbamoyl)cyclohexyl) 3-methylazetidine-1,3-dicarboxylate] | ≤ 0.25
10 | COc1ccc([C@H]2CC[C@H](CN(c3cccc(-c4cnn(C5CC5)c4)c3)C(=O)[C@H]3CC[C@H](OC(=O)N4CC(C(=O)O)C4)CC3)CC2)cc1C [Compound 7.35, 1-(((trans-4-((3-(1-Cyclopropyl-1H-pyrazol-4-yl)phenyl)((trans-4-(4-methoxy-3-methylphenyl)cyclohexyl)methyl)carbamoyl)cyclohexyl)oxy)carbonyl)azetidine-3-carboxylic acid] | ≤ 0.25
11 | COc1ccc([C@H]2CC[C@H](CN(c3cccc(-c4cnn(C5CC5)c4)c3)C(=O)[C@H]3CC[C@H](OC(=O)N4CC(N(C)C(=O)OC(C)(C)C)C4)CC3)CC2)cc1C [Compound 7.36, trans-4-((3-(1-Cyclopropyl-1H-pyrazol-4-yl)phenyl)((trans-4-(4-methoxy-3-methylphenyl)cyclohexyl)methyl)carbamoyl)cyclohexyl 3-((tert-butoxycarbonyl)(methyl)amino) azetidine-1-carboxylate] | ≤ 0.25
12 | CNC1CN(C(=O)O[C@H]2CC[C@H](C(=O)N(C[C@H]3CC[C@H](c4ccc(OC)c(C)c4)CC3)c3cccc(-c4cnn(C5CC5)c4)c3)CC2)C1 [Compound 7.37] | ≤ 0.25
13 | COc1ccc([C@H]2CC[C@H](CN(c3cccc(-c4cnn(C5CC5)c4)c3)C(=O)[C@H]3CC[C@H](OC(=O)N4CC(NC(=O)OC(C)(C)C)C4)CC3)CC2)cc1C [Compound 7.38, trans-4-((3-(1-Cyclopropyl-1H-pyrazol-4-yl)phenyl)((trans-4-(4-methoxy-3-methylphenyl)cyclohexyl)methyl)carbamoyl)cyclohexyl 3-((tert-butoxycarbonyl)amino)azetidine-1-carboxylate] | ≤ 0.25
14 | COc1ccc([C@H]2CC[C@H](CN(c3cccc(-c4cnn(C5CC5)c4)c3)C(=O)[C@H]3CC[C@H](OC(=O)N4CC(N)C4)CC3)CC2)cc1C [Compound 7.39, trans-4-((3-(1-Cyclopropyl-1H-pyrazol-4-yl)phenyl)((trans-4-(4-methoxy-3-methylphenyl)cyclohexyl)methyl)carbamoyl)cyclohexyl 3-aminoazetidine-1-carboxylate] | ≤ 0.25
15 | COc1ccc([C@H]2CC[C@H](CN(c3cc(-c4cnn(C(C)C)c4)ccn3)C(=O)[C@H]3CC[C@H](OC(=O)N4CC(O)C4)CC3)CC2)nc1C#N [Compound 7.40, trans-4-(((trans-4-(6-Cyano-5-methoxypyridin-2-yl)cyclohexyl)methyl)(4-(1-isopropyl-1H-pyrazol-4-yl)pyridin-2-yl)carbamoyl) cyclohexyl 3-hydroxyazetidine-1-carboxylate] | ≤ 0.25
16 | COC(=O)CC1CN(C(=O)O[C@H]2CC[C@H](C(=O)N(C[C@H]3CC[C@H](c4ccc(OC)c(C)c4)CC3)c3cccc(-c4cnn(C5CC5)c4)c3)CC2)C1 [Compound 7.41, trans-4-((3-(1-Cyclopropyl-1H-pyrazol-4-yl)phenyl)((trans-4-(4-methoxy-3-methylphenyl)cyclohexyl)methyl)carbamoyl)cyclohexyl 3-(2-methoxy-2-oxoethyl)azetidine-1-carboxylate] | ≤ 0.25
